In ChEMBL document CHEMBL5608189, “Design and synthesis of unique indole-benzosulfonamide oleanolic acid derivatives as potent antibacterial agents against MRSA” (Eur J Med Chem, 2024):
In brackets after ≈: the same amount, converted by molar mass.

Experiments:
Assay type in all cases: functional
[1] = system: Staphylococcus aureus; experiment: Antibacterial activity against Staphylococcus aureus ATCC 29213 measured after 24 hrs by susceptibility assay
[2] = system: Staphylococcus aureus; experiment: Antibacterial activity against methicillin-resistant Staphylococcus aureus measured after 24 hrs by susceptibility assay
[3] = system: Staphylococcus aureus; experiment: Antibacterial activity against Staphylococcus aureus ATCC 6538 measured after 24 hrs by susceptibility assay
[4] = system: Staphylococcus epidermidis; experiment: Antibacterial activity against Staphylococcus epidermidis ATCC 12228 measured after 24 hrs by susceptibility assay

SMILES	MIC [1] [µM]	MIC [2] [µM]	MIC [3] [µM]	MIC [4] [µM]
COc1ccc(S(=O)(=O)NC(=O)[C@]23CCC(C)(C)C[C@H]2C2=CC[C@@H]4[C@@]5(C)Cc6c([nH]c7ccc(C(=O)O)cc67)C(C)(C)[C@@H]5CC[C@@]4(C)[C@]2(C)CC3)cc1	2 (≈ 1.48 µg/mL)	2 (≈ 1.48 µg/mL)	0.5 (≈ 0.371 µg/mL)	2 (≈ 1.48 µg/mL)
CC1(C)CC[C@]2(C(=O)Nc3ccc(-c4ccccc4)cc3)CC[C@]3(C)C(=CC[C@@H]4[C@@]5(C)Cc6c([nH]c7cccc(C(=O)O)c67)C(C)(C)[C@@H]5CC[C@]43C)[C@@H]2C1	128 (≈ 92.5 µg/mL)	256 (≈ 185 µg/mL)	32 (≈ 23.1 µg/mL)	64 (≈ 46.3 µg/mL)
CC1(C)CC[C@]2(C(=O)Nc3ccc(-c4ccccc4)cc3)CC[C@]3(C)C(=CC[C@@H]4[C@@]5(C)Cc6c([nH]c7ccc(C(=O)O)cc67)C(C)(C)[C@@H]5CC[C@]43C)[C@@H]2C1	> 256	> 256	> 256	> 256
CC1(C)CC[C@]2(C(=O)NS(=O)(=O)c3ccc(C(=O)O)cc3)CC[C@]3(C)C(=CC[C@@H]4[C@@]5(C)Cc6c([nH]c7c(C(=O)O)cccc67)C(C)(C)[C@@H]5CC[C@]43C)[C@@H]2C1	2 (≈ 1.51 µg/mL)	1 (≈ 0.755 µg/mL)	0.5 (≈ 0.377 µg/mL)	1 (≈ 0.755 µg/mL)
CC1(C)CC[C@]2(C(=O)NS(=O)(=O)c3ccc(C(=O)O)cc3)CC[C@]3(C)C(=CC[C@@H]4[C@@]5(C)CCC(=O)C(C)(C)[C@@H]5CC[C@]43C)[C@@H]2C1	128 (≈ 81.6 µg/mL)	256 (≈ 163 µg/mL)	64 (≈ 40.8 µg/mL)	256 (≈ 163 µg/mL)
CC1(C)CC[C@]2(C(=O)O)CC[C@]3(C)C(=CC[C@@H]4[C@@]5(C)CC[C@H](O)C(C)(C)[C@@H]5CC[C@]43C)[C@@H]2C1 [OLEANOLIC_ACID]	32 (≈ 14.6 µg/mL)	32 (≈ 14.6 µg/mL)	32 (≈ 14.6 µg/mL)	32 (≈ 14.6 µg/mL)
CC1(C)CC[C@]2(C(=O)NS(=O)(=O)c3ccc(C(=O)O)cc3)CC[C@]3(C)C(=CC[C@@H]4[C@@]5(C)Cc6c([nH]c7ccc(C(=O)O)cc67)C(C)(C)[C@@H]5CC[C@]43C)[C@@H]2C1	64 (≈ 48.3 µg/mL)	64 (≈ 48.3 µg/mL)	64 (≈ 48.3 µg/mL)	64 (≈ 48.3 µg/mL)
COc1ccc(S(=O)(=O)NC(=O)[C@]23CCC(C)(C)C[C@H]2C2=CC[C@@H]4[C@@]5(C)Cc6c([nH]c7c(C(=O)O)cccc67)C(C)(C)[C@@H]5CC[C@@]4(C)[C@]2(C)CC3)cc1	1 (≈ 0.741 µg/mL)	4 (≈ 2.96 µg/mL)	2 (≈ 1.48 µg/mL)	2 (≈ 1.48 µg/mL)
Cc1ccc(S(=O)(=O)NC(=O)[C@]23CCC(C)(C)C[C@H]2C2=CC[C@@H]4[C@@]5(C)Cc6c([nH]c7ccc(C(=O)O)cc67)C(C)(C)[C@@H]5CC[C@@]4(C)[C@]2(C)CC3)cc1	1 (≈ 0.725 µg/mL)	2 (≈ 1.45 µg/mL)	1 (≈ 0.725 µg/mL)	1 (≈ 0.725 µg/mL)
Cc1ccc(S(=O)(=O)NC(=O)[C@]23CCC(C)(C)C[C@H]2C2=CC[C@@H]4[C@@]5(C)Cc6c([nH]c7cccc(C(=O)O)c67)C(C)(C)[C@@H]5CC[C@@]4(C)[C@]2(C)CC3)cc1	4 (≈ 2.9 µg/mL)	4 (≈ 2.9 µg/mL)	1 (≈ 0.725 µg/mL)	4 (≈ 2.9 µg/mL)
CN1CCN(C(=O)[C@]23CCC(C)(C)C[C@H]2C2=CC[C@@H]4[C@@]5(C)Cc6c([nH]c7c(C(=O)O)cccc67)C(C)(C)[C@@H]5CC[C@@]4(C)[C@]2(C)CC3)CC1	> 256	> 256	> 256	128 (≈ 83.7 µg/mL)
CC1(C)CC[C@]2(C(=O)NS(=O)(=O)c3ccc(Cl)cc3)CC[C@]3(C)C(=CC[C@@H]4[C@@]5(C)Cc6c([nH]c7ccc(C(=O)O)cc67)C(C)(C)[C@@H]5CC[C@]43C)[C@@H]2C1	1 (≈ 0.745 µg/mL)	1 (≈ 0.745 µg/mL)	0.5 (≈ 0.373 µg/mL)	1 (≈ 0.745 µg/mL)
CC1(C)CC[C@]2(C(=O)NS(=O)(=O)c3ccc(Cl)cc3)CC[C@]3(C)C(=CC[C@@H]4[C@@]5(C)CCC(=O)C(C)(C)[C@@H]5CC[C@]43C)[C@@H]2C1	8 (≈ 5.03 µg/mL)	32 (≈ 20.1 µg/mL)	4 (≈ 2.51 µg/mL)	4 (≈ 2.51 µg/mL)
CN1CCN(C(=O)[C@]23CCC(C)(C)C[C@H]2C2=CC[C@@H]4[C@@]5(C)Cc6c([nH]c7cc(C(=O)O)ccc67)C(C)(C)[C@@H]5CC[C@@]4(C)[C@]2(C)CC3)CC1	> 256	256 (≈ 167 µg/mL)	> 256	64 (≈ 41.9 µg/mL)
CN1CCN(C(=O)[C@]23CCC(C)(C)C[C@H]2C2=CC[C@@H]4[C@@]5(C)Cc6c([nH]c7ccc(C(=O)O)cc67)C(C)(C)[C@@H]5CC[C@@]4(C)[C@]2(C)CC3)CC1	> 256	> 256	> 256	> 256
Cc1ccc(S(=O)(=O)NC(=O)[C@]23CCC(C)(C)C[C@H]2C2=CC[C@@H]4[C@@]5(C)CCC(=O)C(C)(C)[C@@H]5CC[C@@]4(C)[C@]2(C)CC3)cc1	> 256	> 256	> 256	> 256
COc1ccc(S(=O)(=O)NC(=O)[C@]23CCC(C)(C)C[C@H]2C2=CC[C@@H]4[C@@]5(C)CCC(=O)C(C)(C)[C@@H]5CC[C@@]4(C)[C@]2(C)CC3)cc1	> 256	> 256	> 256	> 256

SMILES	MIC [1] [µM]	MIC [2] [µM]	MIC [3] [µM]	MIC [4] [µM]
CC1(C)CC[C@]2(C(=O)NS(=O)(=O)c3ccccc3)CC[C@]3(C)C(=CC[C@@H]4[C@@]5(C)Cc6c([nH]c7ccc(Cl)cc67)C(C)(C)[C@@H]5CC[C@]43C)[C@@H]2C1	> 256	> 256	> 256	> 256
CC(=O)c1ccc2c3c([nH]c2c1)C(C)(C)[C@@H]1CC[C@]2(C)[C@H](CC=C4[C@@H]5CC(C)(C)CC[C@]5(C(=O)NS(=O)(=O)c5ccccc5)CC[C@]42C)[C@@]1(C)C3	2 (≈ 1.42 µg/mL)	2 (≈ 1.42 µg/mL)	1 (≈ 0.709 µg/mL)	2 (≈ 1.42 µg/mL)
CC1(C)CC[C@]2(C(=O)Nc3ccc(-c4ccccc4)cc3)CC[C@]3(C)C(=CC[C@@H]4[C@@]5(C)Cc6c([nH]c7cc(C(=O)O)ccc67)C(C)(C)[C@@H]5CC[C@]43C)[C@@H]2C1	> 256	> 256	> 256	> 256
CC1(C)CC[C@]2(C(=O)Nc3ccc(-c4ccccc4)cc3)CC[C@]3(C)C(=CC[C@@H]4[C@@]5(C)CCC(=O)C(C)(C)[C@@H]5CC[C@]43C)[C@@H]2C1	> 256	> 256	> 256	> 256
CC1(C)CC[C@]2(C(=O)NS(=O)(=O)c3ccc(Cl)cc3)CC[C@]3(C)C(=CC[C@@H]4[C@@]5(C)Cc6c([nH]c7cc(C(=O)O)ccc67)C(C)(C)[C@@H]5CC[C@]43C)[C@@H]2C1	2 (≈ 1.49 µg/mL)	2 (≈ 1.49 µg/mL)	0.5 (≈ 0.373 µg/mL)	1 (≈ 0.745 µg/mL)
CC(=O)c1cccc2[nH]c3c(c12)C[C@]1(C)[C@H]2CC=C4[C@@H]5CC(C)(C)CC[C@]5(C(=O)NS(=O)(=O)c5ccccc5)CC[C@@]4(C)[C@]2(C)CC[C@H]1C3(C)C	4 (≈ 2.84 µg/mL)	4 (≈ 2.84 µg/mL)	4 (≈ 2.84 µg/mL)	2 (≈ 1.42 µg/mL)
CC1(C)CC[C@]2(C(=O)NS(=O)(=O)c3ccc(C(=O)O)cc3)CC[C@]3(C)C(=CC[C@@H]4[C@@]5(C)Cc6c([nH]c7cccc(C(=O)O)c67)C(C)(C)[C@@H]5CC[C@]43C)[C@@H]2C1	128 (≈ 96.6 µg/mL)	256 (≈ 193 µg/mL)	64 (≈ 48.3 µg/mL)	256 (≈ 193 µg/mL)
CN1CCN(C(=O)[C@]23CCC(C)(C)C[C@H]2C2=CC[C@@H]4[C@@]5(C)CCC(=O)C(C)(C)[C@@H]5CC[C@@]4(C)[C@]2(C)CC3)CC1	32 (≈ 17.2 µg/mL)	> 256	64 (≈ 34.4 µg/mL)	64 (≈ 34.4 µg/mL)
CC1(C)CC[C@]2(C(=O)NS(=O)(=O)c3ccccc3)CC[C@]3(C)C(=CC[C@@H]4[C@@]5(C)Cc6c([nH]c7ccccc67)C(C)(C)[C@@H]5CC[C@]43C)[C@@H]2C1	> 256	> 256	> 256	> 256
COc1ccc(S(=O)(=O)NC(=O)[C@]23CCC(C)(C)C[C@H]2C2=CC[C@@H]4[C@@]5(C)Cc6c([nH]c7cccc(C(=O)O)c67)C(C)(C)[C@@H]5CC[C@@]4(C)[C@]2(C)CC3)cc1	8 (≈ 5.93 µg/mL)	4 (≈ 2.96 µg/mL)	2 (≈ 1.48 µg/mL)	4 (≈ 2.96 µg/mL)
CN[C@H](CC(C)C)C(=O)N[C@H]1C(=O)N[C@@H](CC(N)=O)C(=O)N[C@H]2C(=O)N[C@H]3C(=O)N[C@H](C(=O)N[C@H](C(=O)O)c4cc(O)cc(O)c4-c4cc3ccc4O)[C@H](O)c3ccc(c(Cl)c3)Oc3cc2cc(c3O[C@@H]2O[C@H](CO)[C@@H](O)[C@H](O)[C@H]2O[C@H]2C[C@](C)(N)[C@H](O)[C@H](C)O2)Oc2ccc(cc2Cl)[C@H]1O [VANCOMYCIN]	0.5 (≈ 0.725 µg/mL)	0.5 (≈ 0.725 µg/mL)	0.5 (≈ 0.725 µg/mL)	0.5 (≈ 0.725 µg/mL)
CC1(C)CC[C@]2(C(=O)NS(=O)(=O)c3ccc(C(=O)O)cc3)CC[C@]3(C)C(=CC[C@@H]4[C@@]5(C)Cc6c([nH]c7cc(C(=O)O)ccc67)C(C)(C)[C@@H]5CC[C@]43C)[C@@H]2C1	2 (≈ 1.51 µg/mL)	2 (≈ 1.51 µg/mL)	1 (≈ 0.755 µg/mL)	4 (≈ 3.02 µg/mL)
CC1(C)CC[C@]2(C(=O)NS(=O)(=O)c3ccccc3)CC[C@]3(C)C(=CC[C@@H]4[C@@]5(C)Cc6c([nH]c7ccc(C(=O)O)cc67)C(C)(C)[C@@H]5CC[C@]43C)[C@@H]2C1	2 (≈ 1.42 µg/mL)	1 (≈ 0.711 µg/mL)	1 (≈ 0.711 µg/mL)	2 (≈ 1.42 µg/mL)
CC1(C)CC[C@]2(C(=O)Nc3ccc(-c4ccccc4)cc3)CC[C@]3(C)C(=CC[C@@H]4[C@@]5(C)Cc6c([nH]c7c(C(=O)O)cccc67)C(C)(C)[C@@H]5CC[C@]43C)[C@@H]2C1	> 256	> 256	> 256	> 256
CC1(C)CC[C@]2(C(=O)NS(=O)(=O)c3ccc(Cl)cc3)CC[C@]3(C)C(=CC[C@@H]4[C@@]5(C)Cc6c([nH]c7cccc(C(=O)O)c67)C(C)(C)[C@@H]5CC[C@]43C)[C@@H]2C1	2 (≈ 1.49 µg/mL)	2 (≈ 1.49 µg/mL)	1 (≈ 0.745 µg/mL)	2 (≈ 1.49 µg/mL)
CC1(C)CC[C@]2(C(=O)NS(=O)(=O)c3ccccc3)CC[C@]3(C)C(=CC[C@@H]4[C@@]5(C)Cc6c([nH]c7ccc(Br)cc67)C(C)(C)[C@@H]5CC[C@]43C)[C@@H]2C1	> 256	> 256	> 256	> 256
